In article PMC9811530 (Experimental and Clinical Endocrinology & Diabetes, 2022):
“Also recorded” adds a separate entry of the source. Read-outs that look alike come from different tables or passages of the source.

Key:
[1] = cited from earlier work
[2] = human, in vivo
Metabolic parameters = format: in vivo, human
[3] = BI 187004 concentration in subcutaneous adipose tissue biopsies; conditions: gMean (%gCV); for BI 187004 AT Cday15: 24 h after last dose; for BI 187004 AT Cday2: immediately after second dose
[4] = In vitro blood cell partitioning; format: in vitro ADME; conditions: 10 and 100 nmol/L, internal communication, data not shown
[5] = In vitro plasma protein binding; format: in vitro ADME; conditions: internal communication, data not shown
HPA axis = assay: Total urinary corticosteroid excretion; format: in vivo, human
[6] = format: in vivo, human; conditions: for BI 187004 Plasma Cday15: 24 h after last dose; for BI 187004 Plasma Cday15 / fe0–24 / CL/F SS / fe0–24,SS / BI 187004 Plasma Cday2 / Cmax: gMean (%gCV); for BI 187004 Plasma Cday2: immediately after second dose; for CL renal / Vd/F / AUC / AUC(0-t) / half-life / Cmax / Tmax: human, oral; for CL renal: plasma and urine; for Vd/F / AUC / AUC(0-t) / half-life / Cmax / Tmax: plasma; for Tmax: t max, median (min–max)
[7] = test system: hypothalamus-pituitary-adrenal (HPA) axis; assay: Hormones of the HPA axis; format: in vivo, human; conditions: all dose groups, during treatment

N#Cc1ccc2c(c1)[C@H]1CCCN(C(=O)c3ccc4[nH]cnc4c3)[C@H]1C2 [BI 187004]
drug-related AEs ([1]; SRD study, healthy volunteers): 16.7% | half-life ([1]; single dose 5 mg, healthy volunteers): 33.5 h | half-life ([1]; single dose 360 mg, healthy volunteers): 13.9 h | increase of total urinary corticosteroid excretion ([1]; single doses 2.5–360 mg): up to 2 fold | general disorders and administration site conditions (AE, system organ class) [2]: 14.3% | fasting plasma glucose over the treatment period (Metabolic parameters; 14 days): not affected | body weight (Metabolic parameters; baseline, day 15, end-of-trial): remained unchanged; also recorded: Changes in body weight could not be observed | clinical laboratory evaluations and vital signs (Safety and tolerability; 10–360 mg over 14 days): no notable findings | hypoglycemic episodes (Safety and tolerability; 10–360 mg over 14 days): No hypoglycemic episodes were reported | intensity of AEs (Safety and tolerability; all dose groups): mild or moderate intensity | serious AE or death (Safety and tolerability; during the trial): No serious AE or death occurred | AE leading to discontinuation of treatment (Safety and tolerability; one patient, 360 mg, day 6, drug-related, moderate intensity): supraventricular tachycardia | pollakiuria (AE) (Safety and tolerability; total BI 187004 group (6 patients, all 80–360 mg)): 10.7% | gastrointestinal disorders (AE) (Safety and tolerability; total BI 187004 group (9 patients)): 16.1% | nervous system disorders (only disorder: headache) (Safety and tolerability; total BI 187004 group (11 patients)): 19.6% | frequency of patients reported with any AE (Safety and tolerability; total BI 187004 group (33 patients)): 58.9% | incidence of drug-related adverse events (Safety and tolerability; total BI 187004 group, 10–360 mg once daily over 14 days (n=29)): 51.8% | BI 187004 AT Cday15 ([3]; 10 mg): 45.5 (37.0) nmol/L | BI 187004 AT Cday2 ([3]; 10 mg): 34.5 (38.3) nmol/L | BI 187004 AT Cday15 ([3]; 20 mg): 66.1 (25.5) nmol/L | BI 187004 AT Cday2 ([3]; 20 mg): 51.8 (83.7) nmol/L | BI 187004 AT Cday15 ([3]; 40 mg): 74.2 (29.6) nmol/L | BI 187004 AT Cday2 ([3]; 40 mg): 142 (72.1) nmol/L | BI 187004 AT Cday15 ([3]; 80 mg): 140 (28.4) nmol/L | BI 187004 AT Cday2 ([3]; 80 mg): 142 (55.9) nmol/L | BI 187004 AT Cday15 ([3]; 160 mg): 238 (56.6) nmol/L | BI 187004 AT Cday2 ([3]; 160 mg): 518 (65.7) nmol/L | BI 187004 AT Cday15 ([3]; 240 mg): 245 (62.8) nmol/L | BI 187004 AT Cday2 ([3]; 240 mg): 872 (54.6) nmol/L | BI 187004 AT Cday15 ([3]; 360 mg): 454 (29.3) nmol/L | BI 187004 AT Cday2 ([3]; 360 mg): 925 (41.7) nmol/L | blood cell partitioning [4]: no difference in blood cell partitioning at low concentrations | plasma protein binding [5]: no increase in plasma protein binding down to 10 nmol/L | total urinary corticosteroid excretion, % of baseline, range over dose groups (HPA axis; after 14 days of treatment): 176.2–253.5% | total urinary corticosteroid excretion increased to (HPA axis; highest dose-group value): 253.5% | increase in total urinary corticosteroid excretion (HPA axis; multiple doses, 14 days): 2.48 fold | BI 187004 Plasma Cday15 ([6]; 10 mg): 322 (37.4) nmol/L | fe0–24 ([6]; 10 mg, Day 1): 5.72 (27.2) % | CL/F SS ([6]; 10 mg, Day 14): 2.01 (28.2) L/h | fe0–24,SS ([6]; 10 mg, Day 14): 10.3 (26.6) % | BI 187004 Plasma Cday2 ([6]; 10 mg): 156 (56.1) nmol/L | BI 187004 Plasma Cday15 ([6]; 20 mg): 520 (25.6) nmol/L | fe0–24 ([6]; 20 mg, Day 1): 6.14 (20.8) % | CL/F SS ([6]; 20 mg, Day 14): 2.53 (24.7) L/h | fe0–24,SS ([6]; 20 mg, Day 14): 9.83 (24.1) % | BI 187004 Plasma Cday2 ([6]; 20 mg): 291 (23.3) nmol/L | BI 187004 Plasma Cday15 ([6]; 40 mg): 744 (25.8) nmol/L | fe0–24 ([6]; 40 mg, Day 1): 3.82 (27.3) % | CL/F SS ([6]; 40 mg, Day 14): 3.16 (21.1) L/h | fe0–24,SS ([6]; 40 mg, Day 14): 6.31 (26.7) % | BI 187004 Plasma Cday2 ([6]; 40 mg): 511 (23.9) nmol/L | BI 187004 Plasma Cday15 ([6]; 80 mg): 1,360 (24.8) nmol/L | fe0–24 ([6]; 80 mg, Day 1): 4.15 (39.3) % | CL/F SS ([6]; 80 mg, Day 14): 3.97 (26.4) L/h | fe0–24,SS ([6]; 80 mg, Day 14): 6.05 (27.0) % | BI 187004 Plasma Cday2 ([6]; 80 mg): 1,020 (30.0) nmol/L | BI 187004 Plasma Cday15 ([6]; 160 mg): 2,430 (54.7) nmol/L | fe0–24 ([6]; 160 mg, Day 1): 5.12 (11.6) % | CL/F SS ([6]; 160 mg, Day 14): 3.69 (37.9) L/h | fe0–24,SS ([6]; 160 mg, Day 14): 6.82 (21.6) % | BI 187004 Plasma Cday2 ([6]; 160 mg): 1,660 (57.7) nmol/L | BI 187004 Plasma Cday15 ([6]; 240 mg): 2,280 (76.0) nmol/L | fe0–24 ([6]; 240 mg, Day 1): 4.87 (24.4) % | fe0–24,SS ([6]; 240 mg, Day 14): 5.83 (22.7) % | BI 187004 Plasma Cday2 ([6]; 240 mg): 2,420 (50.6) nmol/L | BI 187004 Plasma Cday15 ([6]; 360 mg): 2,780 (19.6) nmol/L | fe0–24 ([6]; 360 mg, Day 1): 5.11 (22.4) % | CL/F SS ([6]; 360 mg, Day 14): 6.47 (12.3) L/h | fe0–24,SS ([6]; 360 mg, Day 14): 6.46 (8.01) % | BI 187004 Plasma Cday2 ([6]; 360 mg): 2,660 (36.5) nmol/L | dose proportionality of Cmax and AUCτ,ss ([6]; 10 to 360 mg): increased non-proportionally | time of absorption ([6]; 10–360 mg): ≤ 2 h | gMean oral clearance (CL/F,ss), range over dose groups ([6]; 10–360 mg, day 14): 2.01 to 6.47 L/h | accumulation in plasma ([6]; between days 1 and 14): limited | CL renal ([6]; 10 mg): 3.72 mL/min | CL renal ([6]; 20 mg): 4.3 mL/min | CL renal ([6]; 40 mg): 2.68 mL/min | CL renal ([6]; 80 mg): 3.47 mL/min | CL renal ([6]; 160 mg): 3.78 mL/min | CL renal ([6]; 240 mg): 4.38 mL/min | CL renal ([6]; 360 mg): 6.4 mL/min | Vd/F [6]: 195 to 1160 L | AUC ([6]; 10 mg): 14.5 µM·h | AUC(0-t) ([6]; 10 mg): 7.5 µM·h | Vd/F ([6]; 10 mg): 308 L | half-life ([6]; 10 mg): 106 h | Cmax ([6]; 10 mg, C max, 10 mg, Day 1): 0.681 µM | Cmax ([6]; 10 mg, C max,SS, 10 mg, Day 14): 1.24 µM | Tmax ([6]; 10 mg, 10 mg, Day 1): 2 h | Tmax ([6]; 10 mg, SS, 10 mg, Day 14): 0.834 h | AUC ([6]; 20 mg): 23 µM·h | AUC(0-t) ([6]; 20 mg): 13.9 µM·h | Vd/F ([6]; 20 mg): 253 L | half-life ([6]; 20 mg): 69.2 h | Cmax ([6]; 20 mg, C max, 20 mg, Day 1): 1.37 µM | Cmax ([6]; 20 mg, C max,SS, 20 mg, Day 14): 1.94 µM | Tmax ([6]; 20 mg, 20 mg, Day 1): 0.834 h | Tmax ([6]; 20 mg, SS, 20 mg, Day 14): 0.834 h | AUC ([6]; 40 mg): 26.9 µM·h | AUC(0-t) ([6]; 40 mg): 27.7 µM·h | Vd/F ([6]; 40 mg): 195 L | half-life ([6]; 40 mg): 42.8 h | Cmax ([6]; 40 mg, C max, 40 mg, Day 1): 2.92 µM | Cmax ([6]; 40 mg, C max,SS, 40 mg, Day 14): 3.4 µM | Tmax ([6]; 40 mg, 40 mg, Day 1): 1 h | Tmax ([6]; 40 mg, SS, 40 mg, Day 14): 0.834 h | AUC ([6]; 80 mg): 58.8 µM·h | AUC(0-t) ([6]; 80 mg): 46.5 µM·h | Vd/F ([6]; 80 mg): 346 L | half-life ([6]; 80 mg): 60.3 h | Cmax ([6]; 80 mg, C max, 80 mg, Day 1): 4.32 µM | Cmax ([6]; 80 mg, C max,SS, 80 mg, Day 14): 4.93 µM | Tmax ([6]; 80 mg, 80 mg, Day 1): 0.834 h | Tmax ([6]; 80 mg, SS, 80 mg, Day 14): 1.25 h | AUC ([6]; 160 mg): 127 µM·h | AUC(0-t) ([6]; 160 mg): 106 µM·h | Vd/F ([6]; 160 mg): 230 L | half-life ([6]; 160 mg): 43.1 h | Cmax ([6]; 160 mg, C max, 160 mg, Day 1): 11.5 µM | Cmax ([6]; 160 mg, C max,SS, 160 mg, Day 14): 12.1 µM | Tmax ([6]; 160 mg, 160 mg, Day 1): 1 h | Tmax ([6]; 160 mg, SS, 160 mg, Day 14): 0.667 h | AUC ([6]; 240 mg): 145 µM·h | AUC(0-t) ([6]; 240 mg): 130 µM·h | Vd/F ([6]; 240 mg): 359 L | half-life ([6]; 240 mg): 51.5 h | Cmax ([6]; 240 mg, C max, 240 mg, Day 1): 14.6 µM | Cmax ([6]; 240 mg, C max,SS, 240 mg, Day 14): 15 µM | Tmax ([6]; 240 mg, 240 mg, Day 1): 1 h | Tmax ([6]; 240 mg, SS, 240 mg, Day 14): 0.667 h | AUC ([6]; 360 mg): 162 µM·h | AUC(0-t) ([6]; 360 mg): 140 µM·h | Vd/F ([6]; 360 mg): 1160 L | half-life ([6]; 360 mg): 124 h | Cmax ([6]; 360 mg, C max, 360 mg, Day 1): 14.3 µM | Cmax ([6]; 360 mg, C max,SS, 360 mg, Day 14): 15.5 µM | Tmax ([6]; 360 mg, 360 mg, Day 1): 1 h | Tmax ([6]; 360 mg, SS, 360 mg, Day 14): 1.5 h | mean ACTH levels [7]: increased but within the normal range
